According to a melting point compilation (Tetko et al.; mined from patent text by program, amines drawn as free bases though some values may be those of a salt):

| SMILES | melting point [°C] |
| --- | --- |
| N#CN(Cc1ccc([N+](=O)[O-])cc1)C(=O)CCCC(=O)N(C#N)Cc1ccc([N+](=O)[O-])cc1 | 146 to 148 |
| Cc1c(C)c2c(c(C)c1N)CC(C)(CN1CCN(CC(c3ccccc3)c3ccccc3)CC1)O2 (centres undefined) | 130 to 132 |
| CC(C#CC1CCCC1)N(O)C(N)=O (centres undefined) | 140 to 141 |
| O=C(O)c1ccc2c(c1)S(=O)(=O)c1ccccc1CC2 | 248 to 250 |
| COc1c(C)cc(P(c2cc(C)c(OC)c(C)c2)c2cc(C)c(OC)c(C)c2)cc1C | 176 |
| CC(C)(C)c1ccc(S(=O)(=O)Nc2nc(-c3ncccn3)nc(Cl)c2-c2cccs2)cc1 | 130 to 132 |
| ON=C(c1cc(F)cc(F)c1)c1cccc2nc(N[C@@H]3CCc4ccccc43)ccc12 | 120 |
| COC(=O)c1cc2cc(OCc3ccccc3)ccc2n1CC(=O)N(C)CCc1ccccc1 | 155 to 156 |
| CC(=O)NC(CCCCN)C(=O)C(N)C(CC1(C(=O)NC2CCC(C(=O)O)CC2)CCCC1)C(=O)O (centres undefined) | 161 to 163 |
| CCCCC=CC(=O)Nc1ccccc1 | 50 |
| FC(F)(F)/C(=C(\c1ccccc1)c1ccc(OCCN2CCCC2)cc1)c1ccccc1 | 84.5 to 86 |
| Cc1cccc(-c2nc(-c3ccc(S(C)=O)cc3)sc2-c2cc(C)nc(C)c2)c1 (centres undefined) | 133 to 134 |
| CC[C@H](c1ccc(C(F)(F)F)cc1)N(Cc1ccc(C(=O)O)cc1)S(=O)(=O)c1ccc(Cl)cc1 | 105 to 107 |
| COc1ccccc1N1CCN(CC(C(=O)O)c2ccccc2)CC1 (centres undefined) | 160 to 163 |
| COc1ccc(-c2ccc(O)c(C3(C)CCCCC3)c2)cc1CC1SC(N2CCCC2)=NC1=O (centres undefined) | 121 to 122 |
| CC(=O)c1ccc(C2CCCC2)cc1 | 100 to 102 |
| O=Cc1c2ccccc2c(Cl)c2cc3ccccc3cc12 | 212 to 214 |
| CC(C)c1c(CCl)c(-c2ccc(F)cc2)nn1-c1ccccc1 | 124 to 128 |
| CC(Br)(CBr)CS(=O)(=O)Oc1ccc([N+](=O)[O-])cc1 (centres undefined) | 56 to 58 |
| CC(C)(C)c1cc(C=C(C#N)C#N)cc(I)c1O | 188 |
| CC(C)(C)C(=O)c1ccc(C(=O)NC(=O)CCc2ccccc2)cc1 | 137 to 138 |
| OC1(CCc2ccccc2)CCOCC1 | 74 to 75 |
| O=c1c2ccc3cc[nH]c3c2ccn1Cc1ccccc1 | 211 to 213 |

| SMILES | melting point [°C] |
| --- | --- |
| COc1ccc(-c2cc(COCCc3cccc(NS(=O)(=O)C(F)(F)F)c3)ccc2F)cc1 | 70 to 71 |
| O=C(NCc1ccc2c(c1)OCO2)c1ccc2[nH]c(=O)n(Cc3ccc4c(c3)OCO4)c(=O)c2c1 | 245 |
| CC1(C)[C@H](C=C(Cl)C(F)(F)F)[C@@H]1C(=O)NCc1cccc2c1CCCc1ccccc1-2 (relative stereo) | 65 to 70 |
| FC(F)(F)c1c[nH]c(-c2ccc(OCC3CO3)cc2)n1 (centres undefined) | 152 to 154 |
| c1cncc(-c2ccc(N3CCCN(c4ccc(-c5cccnc5)cn4)CC3)nc2)c1 | 210 to 211 |
| O=S(=O)(c1ccccc1)C1CCCO1 (centres undefined) | 55.9 to 56.8 |
| COc1ccc(-n2nc(Sc3ccc(F)cc3)c(C)c(C#N)c2=O)cc1 | 150 to 152 |
| CCCCCCCC(=O)Nc1cccc(-c2cc(=O)cc(C(=O)O)o2)c1 | 242 to 247 |
| COc1ccc(S(=O)(=O)Nc2ccccc2C(F)(F)F)cc1 | 92 to 93 |
| Cc1cc(OS(=O)(=O)c2ccccc2)cc2c(C3CCN(C)CC3)c[nH]c12 | 118 |
| CC1(C)Oc2ccc(C#N)cc2C(n2ccccc2=O)C1=O (centres undefined) | 178 |
| Cc1c(NC(=O)CC(C)(C)C)cc2c(c1C)OC(C)(C)C2c1ccc(Br)cc1 (centres undefined) | 171 to 172 |
| O=C1Nc2cccnc2Nc2ncccc21 | > 340 |
| COc1cc(C=CC(=O)Nc2cnc3c(C)c(Cl)ccc3c2-c2ccccc2C)cc(OC)c1OC(C)=O | 213 to 214 |
| O=C1CCC(N2Cc3c(OCc4ccc(CN5CCN(S(=O)(=O)C(F)(F)F)CC5)cc4)cccc3C2=O)C(=O)N1 (centres undefined) | 135 to 137 |
| Cc1cc(NC(=O)C(C)(O)COc2cccc(F)c2F)ccc1[N+](=O)[O-] (centres undefined) | 68 to 73 |
| c1cncc(CC2(Cc3cccnc3)c3ccccc3-c3ccccc32)c1 | 137 to 138 |
| O=C1C(=C2CCCN2Cc2ccccc2)c2ccccc2N1c1cccc(Cl)c1 | 72 to 75 |
| CC(CCC(=O)NCCCCCC(=O)NCCCCCO)C1CCC2C3C(O)CC4CC(O[Si](C)(C)C(C)(C)C)CCC4(C)C3CC(O)C12C (centres undefined) | 146 to 148 |
| O=C(O)CCC1CCN(C(=O)OCc2ccc([N+](=O)[O-])cc2)CC1 | 98 to 99 |
| COc1ncc(C=C2SC(=S)N(CC(=O)O)C2=O)cc1-c1cc2c(cc1C)C(C)(C)CCC2(C)C | 253 to 255 |
| Cn1c(CCN2CCC(c3ccccc3)CC2)nc2cc(Br)c3ccccc3c21 | 182 to 184 |

More lines, now with the values ahead:

| melting point [°C] | SMILES |
| --- | --- |
| 162 to 164 | COC(=O)c1sc(-n2cccn2)cc1O |
| 120 to 122 | COC(=O)C1=C(C#N)NC(C)=C(C(=O)OC(C)C)C1c1cccc([N+](=O)[O-])c1 (centres undefined) |
| 171 to 178 | CCNc1cc(-c2nc(=O)c3ccccc3s2)ccc1C(=O)OC |
| 122 to 123 | N#Cc1c(-c2ccc(Cl)cc2)c(-c2ccc(Cl)cc2)nn(CCO)c1=O |
| 223 to 226 | CCn1nc(C(F)(F)F)cc1NC(=O)C1C(C)=CC=CC1(C(N)=O)C(C)C (centres undefined) |
| 99 to 102 | CCCCNc1c(C#N)cnc2cc(OCCOC)c(OC)cc12 |
| 212 | COC(=O)c1cc(N)c2nc(C)nn2c1 |
| 180 | COc1ccc2cc(-c3ccc(Cl)c(-n4nc(C)c(C)n4)c3)c(=O)oc2c1 |
| 125 to 128 | COc1nc(C)cnc1N(C(=O)OCC(C)C)S(=O)(=O)c1cccnc1-c1ccc(CBr)cc1 |
| 142 to 143 | CC(Cl)(Cl)C(NC(=O)c1cccc(Cl)c1)NC(=NC#N)Nc1cccnc1 (centres undefined) |
| 40 to 44 | CCOC(=O)N1CC=C(c2cc(F)c(Br)cc2F)CC1 |
| 182 to 185 | CC1(C)OC(=O)C(CO)(c2ccc(Cl)cc2Cl)O1 (centres undefined) |
| 80 to 82 | COc1ccc(O)cn1 |
| 60 to 63 | CCCc1c(SC(=O)N(C)C)ccc(C(C)=O)c1OCCCC(=O)OCC |
| 80 to 81 | COCOCCCOn1cnc2cnc(N)nc21 |
| 80 to 81 | COC(=O)C=C1CCCCC1c1cc(OC)cc(OC)c1 (centres undefined) |
| 136 to 137 | CC(C)COC(=O)Nc1cc(F)c(C2=CCSCC2)c(F)c1 |
| 163 to 164 | COc1ccc(CCCN2CCc3cc(O)ccc3C2)cc1 |
| > 258 | CNC(=S)NNc1ccnc2c(NC(=O)c3c(Cl)cccc3Cl)cccc12 |
| 142 to 145 | CCOC(=O)Cc1c(C(=O)OCC)c(C)c(C(=O)OCC)n1CC |
| 94 to 95 | CC(C)(C)OC(=O)n1cc2c(c1C=O)OCCO2 |
| 31.6 | CCOC(=O)c1cc(Cl)nc(Cl)n1 |
| 130 to 132 | COC1CCC(OC)C2=C1C=CC(O)(C(C)=O)C2 (single isomer, unassigned; (-)) |
| 207 | CS(=O)(=O)N[C@@H]1CN2C(=O)N(c3cc(Cl)nc(Cl)c3)C(=O)[C@@]2(Cc2ccc(OC(F)(F)F)cc2)C1 |
| 102 to 104 | Cc1cccc(/C=C/c2nc(COc3ccc(CCCCn4ccnc4CC(O)CO)cc3)co2)c1 (centres undefined) |
| 110 to 111 | CC(C)(C)OC(=O)c1cccc(-c2ccc([N+](=O)[O-])cc2)c1 |
| 160 to 161 | COc1ccc(-c2ccc(C(=O)Nc3ccc4cc(CN5CCCCCC5)cnc4c3C)cc2F)cc1 |

| melting point [°C] | SMILES |
| --- | --- |
| 126 to 127 | COc1cc(C(=O)Nc2ccc(S(=O)(=O)C(F)(F)F)cc2Cl)c(O)c(C(C)(C)C)c1 |
| 28 | CC1=CC(=O)C(C)=C(C)C1=O |
| 111 to 112 | CCCCc1ccc(NC(=O)OCc2ccccc2)c(=O)n1CC(=O)OC |
| 48 | CCCCc1cnc(-c2ccc(N=C=O)cc2)nc1 |
| 200 to 201 | COC(=O)C1=C(O)c2c(c3cc(OC)ccc3n2C)S(=O)(=O)N1C |
| 125 to 132 | CCCN(CCc1coc2c(OC)cccc12)C1COc2c(F)ccc(C(N)=O)c2C1 (centres undefined) |
| 115 to 120 | CC(C)(C)OC(=O)NC(=O)C(N)OCc1ccccc1 (centres undefined) |
| > 320 | Cn1nnnc1-c1cn(C)c2cc(O)ccc2c1=O |
| 220 to 224 | COC(=O)Nc1nc2ccc(Oc3ccncc3)cc2[nH]1 |
| 103 to 105 | CCN1C(=O)C(=O)N(c2c(C)cccc2C)C1=S |
| 178 | COC(=N)Nc1nc(Cl)cc(Cl)n1 |
| 93 to 94 | CCOC(=O)/C=C(C)/C=C/C=C(C)/C=C/c1c(Cl)cc(OC(F)(F)F)c(C)c1Cl |
| 167 to 168 | O=C(O)COc1cc2cc(C3CCCCC3)sc2c(Cl)c1Cl |
| 170 to 171 | CCCc1c(O)cc2oc3cccn3c(=O)c2c1O |
| 180 to 181 | CCc1nc2c(N)nc3ccccc3c2n1CCCCNC(=O)Nc1ccccc1 |
| 251 to 255 | COC(=O)c1cccc2c3nc4ccccc4[nH]c-3nc12 |
| 109 to 110 | CC(C)c1ccc2cc(O)ccc2c1 |
| 251 to 253 | CNc1c(F)cc2c(=O)c(C(=O)O)cn(-c3nc(N)c(F)cc3F)c2c1Cl |
| 185 to 187 | COC(=O)c1ccc(CNS(C)(=O)=O)cc1S(N)(=O)=O |
| 107 to 108 | COc1cc2cc(CO)c(CO)c(-c3cccc(Br)n3)c2cc1OC |
| 94 to 96 | CC(C)N1C(=O)c2cnc(Cl)cc2C1=O |
| 127 to 129 | Clc1ccc(-c2nc(Cl)cc(NCCN3CCOCC3)n2)cc1 |
| 148 to 150 | CCOC(=O)C(Cc1ccccc1)NC(=O)COc1ccc(C2=NNC(=O)NC2)cc1C (centres undefined) |
| 211 to 212 | COc1cc2nc(S(=O)(=O)Nc3c(Cl)cccc3Cl)nn2c(OC)n1 |
| 170 to 172 | CCc1oc2ccccc2c1C(=O)c1ccc(Cl)c(S(N)(=O)=O)c1 |
| 94 to 95 | CC(C)(C)C(=O)C(=Cn1ccnc1)Oc1ccc(Cl)cc1 |
| 164 to 165 | CCCCCC(CC(=O)Nc1cc(C(=O)O)ccc1C(C)(C)C)c1ccc(C)cc1OC (centres undefined) |
